Common to all, as to type: cell-based
For assay [1], the target named is T1, Alpha-1D adrenergic receptor (Homo sapiens, UniProt P25100).
T1 sequence (P25100 whole entry): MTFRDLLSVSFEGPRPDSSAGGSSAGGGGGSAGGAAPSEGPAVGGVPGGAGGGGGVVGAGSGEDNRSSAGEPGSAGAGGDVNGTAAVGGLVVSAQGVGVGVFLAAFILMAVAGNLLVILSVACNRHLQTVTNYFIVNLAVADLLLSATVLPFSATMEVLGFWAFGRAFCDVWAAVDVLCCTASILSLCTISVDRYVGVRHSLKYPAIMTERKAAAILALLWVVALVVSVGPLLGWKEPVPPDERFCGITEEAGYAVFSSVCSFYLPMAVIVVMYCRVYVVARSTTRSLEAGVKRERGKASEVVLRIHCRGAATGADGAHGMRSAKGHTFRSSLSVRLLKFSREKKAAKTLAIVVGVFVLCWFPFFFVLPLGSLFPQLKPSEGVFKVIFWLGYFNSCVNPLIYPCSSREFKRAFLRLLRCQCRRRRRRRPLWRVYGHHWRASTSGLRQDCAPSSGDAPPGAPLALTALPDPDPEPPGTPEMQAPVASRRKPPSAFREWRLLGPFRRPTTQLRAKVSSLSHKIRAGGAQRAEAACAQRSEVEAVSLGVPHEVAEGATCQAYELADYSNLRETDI
In words: Displacement of [125I]HEAT from human Alpha-1D adrenergic receptor stably expressed in HL cells. A general note: In a radioligand displacement assay an active substance lowers the binding of a labelled ligand.

The target of assay [2] is T2, Alpha-1B adrenergic receptor (Homo sapiens, UniProt P35368).
T2 sequence (P35368 whole entry): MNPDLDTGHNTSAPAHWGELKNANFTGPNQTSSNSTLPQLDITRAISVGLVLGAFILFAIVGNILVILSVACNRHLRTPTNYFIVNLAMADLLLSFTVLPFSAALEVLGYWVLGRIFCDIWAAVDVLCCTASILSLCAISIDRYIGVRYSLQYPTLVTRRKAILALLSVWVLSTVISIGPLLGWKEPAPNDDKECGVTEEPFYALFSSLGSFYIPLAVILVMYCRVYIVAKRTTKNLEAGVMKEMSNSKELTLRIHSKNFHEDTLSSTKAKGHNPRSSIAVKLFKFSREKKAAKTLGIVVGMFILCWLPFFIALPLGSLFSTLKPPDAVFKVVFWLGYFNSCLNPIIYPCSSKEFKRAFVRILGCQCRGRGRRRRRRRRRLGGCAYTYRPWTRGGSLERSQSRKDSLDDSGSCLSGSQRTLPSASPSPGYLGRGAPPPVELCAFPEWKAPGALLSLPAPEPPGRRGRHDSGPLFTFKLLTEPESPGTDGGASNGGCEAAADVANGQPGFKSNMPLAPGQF
In words: Displacement of [125I]HEAT from human Alpha-1B adrenergic receptor stably expressed in LM cells.

The target of assay [3] is T3, Alpha-1A adrenergic receptor (Homo sapiens, UniProt P35348).
T3 sequence (P35348 whole entry): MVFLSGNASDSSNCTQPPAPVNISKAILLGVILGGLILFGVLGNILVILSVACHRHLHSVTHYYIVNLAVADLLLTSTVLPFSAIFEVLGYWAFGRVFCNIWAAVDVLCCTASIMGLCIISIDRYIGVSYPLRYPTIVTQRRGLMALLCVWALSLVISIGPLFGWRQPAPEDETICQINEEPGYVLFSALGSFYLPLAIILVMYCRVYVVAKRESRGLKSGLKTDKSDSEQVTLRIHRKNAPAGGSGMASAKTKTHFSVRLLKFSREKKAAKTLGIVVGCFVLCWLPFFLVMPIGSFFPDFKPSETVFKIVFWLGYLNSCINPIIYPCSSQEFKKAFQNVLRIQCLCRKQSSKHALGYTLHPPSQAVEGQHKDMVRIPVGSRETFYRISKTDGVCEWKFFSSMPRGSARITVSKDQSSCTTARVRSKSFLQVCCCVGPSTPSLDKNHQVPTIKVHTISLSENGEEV
In words: Displacement of [125I]HEAT from human Alpha-1A adrenergic receptor stably expressed in CHO cells.

One may read the Ki as the dissociation constant of the complex between target and ligand, obtained from inhibition or displacement. Consider `COCC1=C(C(=O)OC)[C@H](c2ccc(F)c(F)c2)N(C(=O)N[C@@H]2CC[C@H](N3CCC(C#N)(c4ccccc4)CC3)C2)C(=O)N1`, for which the Ki in assay [1] amounted to 620 nM; in assay [2], 1900 nM; in assay [3] it was 1 nM.

Consider `COCC1=C(C(=O)OC)[C@H](c2ccc(F)c(F)c2)N(C(=O)N[C@@H]2CC[C@@H](N3CCC(c4ccccc4C#N)CC3)C2)C(=O)N1`, for which the figures for the inhibition constant Ki in assay [1], in assay [2] and in assay [3] were 31 nM, 91 nM and 0.46 nM, respectively.

On to `COCC1=C(C(=O)OC)[C@H](c2ccc(F)c(F)c2)N(C(=O)N[C@H]2CC[C@H](N3CCN(c4ccccc4C#N)CC3)C2)C(=O)N1`, for which the Ki in assay [1] is 9 nM; in assay [2] it was 15 nM; in assay [3] it was 4.8 nM.

Take `COCC1=C(C(=O)OC)[C@H](c2ccc(F)c(F)c2)N(C(=O)N[C@H]2CC[C@@H](N3CCC(c4ccccc4C#N)CC3)C2)C(=O)N1`: the Ki was 97 nM in assay [1], 70 nM in assay [2] and 0.6 nM in assay [3].

As for `COCC1=C(C(=O)OC)[C@H](c2ccc(F)c(F)c2)N(C(=O)N[C@@H]2CC[C@H](N3CCC(c4ccccn4)CC3)C2)C(=O)N1`, the Ki in assay [1] was 320 nM; in assay [2], 1300 nM; in assay [3], 0.4 nM.

Regarding `COCC1=C(C(=O)OC)[C@H](c2ccc(F)c(F)c2)N(C(=O)N[C@H]2CC[C@@H](N3CCC(C#N)(c4ccccc4)CC3)C2)C(=O)N1`, the Ki amounted to 660 nM in assay [1], 730 nM in assay [2] and 2.4 nM in assay [3].

On to `COCC1=C(C(=O)OC)[C@H](c2ccc(F)c(F)c2)N(C(=O)N[C@@H]2CC[C@H](N3CCC(c4ccccc4C#N)CC3)C2)C(=O)N1`, for which the Ki in assay [1] came out at 16 nM; in assay [2] it was 130 nM; in assay [3] it was 0.24 nM.

On to `COCC1=C(C(=O)OC)[C@H](c2ccc(F)c(F)c2)N(C(=O)N[C@@H]2CC[C@H](N3CCN(c4ccccc4C#N)CC3)C2)C(=O)N1`, for which the results for the Ki in assay [1], in assay [2] and in assay [3] were 7.5 nM, 28 nM and 1.6 nM, respectively.

`COCC1=C(C(=O)OC)[C@H](c2ccc(F)c(F)c2)N(C(=O)N[C@H]2CC[C@@H](N3CCN(c4ccccc4C#N)CC3)C2)C(=O)N1`: the Ki in assay [1] is 39 nM; in assay [2] it was 51 nM; in assay [3], 0.44 nM.

On to `COCC1=C(C(=O)OC)[C@H](c2ccc(F)c(F)c2)N(C(=O)N[C@H]2CC[C@H](N3CCC(C#N)(c4ccccc4)CC3)C2)C(=O)N1`, for which the Ki in assay [1] was 95 nM; in assay [2], 120 nM; in assay [3] it was 2.3 nM.

For `COCC1=C(C(=O)OC)[C@H](c2ccc(F)c(F)c2)N(C(=O)N[C@@H]2CC[C@@H](N3CCC(c4ccccn4)CC3)C2)C(=O)N1`, the Ki was determined as 500 nM in assay [1], 350 nM in assay [2] and 0.38 nM in assay [3].

Turning to `COCC1=C(C(=O)OC)[C@H](c2ccc(F)c(F)c2)N(C(=O)N[C@@H]2CC[C@@H](N3CCC(C#N)(c4ccccc4)CC3)C2)C(=O)N1`, the Ki in assay [1] came out at 660 nM; in assay [2] it was 210 nM; in assay [3], 0.37 nM.

For the compound `COCC1=C(C(=O)OC)[C@H](c2ccc(F)c(F)c2)N(C(=O)N[C@H]2CC[C@H](N3CCC(c4ccccc4C#N)CC3)C2)C(=O)N1`, the values for the Ki in assay [1], in assay [2] and in assay [3] were 11 nM, 36 nM and 2.4 nM, respectively.

In the case of `COCC1=C(C(=O)OC)[C@H](c2ccc(F)c(F)c2)N(C(=O)N[C@H]2CC[C@H](N3CCC(c4ccccn4)CC3)C2)C(=O)N1`, the Ki worked out at 170 nM in assay [1], 130 nM in assay [2] and 8.3 nM in assay [3].

For the compound `COCC1=C(C(=O)OC)[C@H](c2ccc(F)c(F)c2)N(C(=O)N[C@@H]2CC[C@@H](N3CCN(c4ccccc4C#N)CC3)C2)C(=O)N1`, the Ki in assay [1] was 5.4 nM; in assay [2] it was 14 nM; in assay [3], 0.9 nM.

As to `COCC1=C(C(=O)OC)[C@H](c2ccc(F)c(F)c2)N(C(=O)N[C@H]2CC[C@@H](N3CCC(c4ccccn4)CC3)C2)C(=O)N1`, the Ki in assay [1] came out at 550 nM; in assay [2], 290 nM; in assay [3] it was 4.7 nM.

(Values after ChEMBL document CHEMBL1133287, “Preparation and evaluation of 1,3-diaminocyclopentane-linked dihydropyrimidinone derivatives as selective alpha1a-receptor antagonists” (Bioorg Med Chem Lett, 2000).)
